Results from patent publication US4774238A, “Heterocyclic-methylene-penems” (Beecham Group plc, priority 1985, dated 1988).

Assay: Solubility of the penem free acid in water
Type: physicochemical

solubility in water: only sparingly soluble
Structure (SMILES): Cn1cc(/C=C2/C(=O)N3C(C(=O)O)=CS[C@H]23)nn1 [penem free acid, Crystalline (5R) (Z)-6-(1-Methyl-1,2,3-triazol-4-ylmethylene)penem-3-carboxylic acid]
